Experimental data reported in BindingDB's records for doi:10.1021/jm00137a012 (1981).

target: T1, Dihydrofolate reductase (Bos taurus, UniProt P00376); assay: Inhibition of dihydrofolate reductase from bovine liver
T1 sequence (P00376 whole entry): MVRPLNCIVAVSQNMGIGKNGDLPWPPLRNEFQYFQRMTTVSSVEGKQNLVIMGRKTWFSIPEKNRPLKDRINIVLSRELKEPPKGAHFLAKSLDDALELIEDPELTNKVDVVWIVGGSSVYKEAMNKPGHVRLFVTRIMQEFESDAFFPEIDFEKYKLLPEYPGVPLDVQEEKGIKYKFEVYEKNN

Row | Structure (SMILES) | Ki [µM]
1 | COCc1cccc(Cc2cnc(N)nc2N)c1 | 3.24
2 | CCCCOc1ccc(Cc2cnc(N)nc2N)cc1 | 1.82
3 | COc1ccc(Cc2cnc(N)nc2N)cc1OC [Diaveridine] | 7.08
4 | Nc1ncc(Cc2cc(CO)cc(CO)c2)c(N)n1 | 50.1
5 | Nc1ccc(Cc2cnc(N)nc2N)cc1 | 26.9
6 | CCCCOCc1cccc(Cc2cnc(N)nc2N)c1 | 1.38
7 | Nc1ncc(Cc2cccc(C(F)(F)F)c2)c(N)n1 | 2.95
8 | COCCOc1c(OC)cc(Cc2cnc(N)nc2N)cc1OC [5-[3,5-Dimethoxy-4-(2-methoxy-ethoxy)-benzyl]-pyrimidine-2,4-diamine] | 13.2
9 | Nc1ncc(Cc2ccc(OC(F)(F)F)cc2)c(N)n1 | 3.8

Second part, the molecule after the results:

Row | Ki [µM] | Structure (SMILES)
10 | 0.708 | Nc1ncc(Cc2cccc(I)c2)c(N)n1
11 | 13.2 | Nc1ncc(Cc2cccc(O)c2)c(N)n1 [3-(2,4-Diamino-pyrimidin-5-ylmethyl)-phenol]
12 | 6.92 | CC(=O)Nc1ccc(Cc2cnc(N)nc2N)cc1[N+](=O)[O-]
13 | 15.8 | Cc1ccc(Cc2cnc(N)nc2N)cc1
14 | 6.31 | Nc1ncc(Cc2cccc(CO)c2)c(N)n1
15 | 2.63 | CS(=O)(=O)Oc1cccc(Cc2cnc(N)nc2N)c1
